This is an account of results in patent US6617343B1, “Hypoglycemic N,N-arylsulfonylglycine compounds” (Eli Lilly and Company, priority 1999, dated 2003).

The structures appear in SMILES notation.

Data set [1] concerns Male obese-diabetic viable yellow (AvY) mice. The experiment in a line: Hypoglycemic efficacy: blood glucose in obese-diabetic viable yellow mice fed compound admixed in chow. It is filed as in vivo. Particulars: dose .03 weight percent in diet; for % BG14 (BG0 = 100): blood glucose at day 14 as percent of initial value. The protocol:
Male obese-diabetic viable yellow (AvY) mice were divided into two groups of 6 each. One group was fed repelletized purina 5008 Chow and the second group was fed repelletized Purina 5008 Chow, admixed with varying doses of the candidate compound. Blood samples were taken before the experiment was initiated and 7 and 14 days after initiation. Body weight and food consumption were monitored. The blood glucose level after 7 or 14 days of treatment was measured and recorded as a percent of the initial value, compared to the untreated control (first) group. The results are presented in the table 1 below; and include the dose of the candidate compound as a weight percent of the amount incorporated into the diet. Also in the table is a representative value for a positive control (a known hypoglycemic agent reported by a Takeda group [J. Med. Chem., 35, 2617]) administered in the same way as a canditate compound of the present invention.
BG means blood glucose level; BG0 means blood glucose level at day zero and BG14 means blood glucose level at day 14 accordingly.

By melting point is commonly meant the temperature of the solid-liquid transition. As for `CC(C)S(=O)(=O)N(CC(=O)O)c1ccc(OCCc2coc(-c3ccccc3)n2)cc1` [Example 1, N-[4-(2-(Phenyloxazol-4yl)ethoxyl]phenyl)-N-isopropyl Sulfonylglycine], the melting point was in the range of 136 to 139 °C. Besides, the “% BG14 (BG0 = 100)” value in data set [1] is 53.1%.

On to `CS(=O)(=O)N(CC(=O)O)c1ccc(OCCc2coc(-c3ccccc3)n2)cc1` [Example 2, N-4[-(2-(Phenyloxazol-4yl)ethoxy)phenyl]-N-methylsufonyl-glycine], for which the melting point lay within 200 to 201 °C. The “% BG14 (BG0 = 100)” value in data set [1] was found to be 76.4%.

With `CS(=O)(=O)N(CC(=O)[O-])c1ccc(OCCc2coc(-c3ccccc3)n2)cc1.[Na+]` [Example 3, Sodium N-(4-(2-Phenyl-4-oxazolylethoxy)phenyl)-N-methylsulfonylglycinate], the “% BG14 (BG0 = 100)” value in data set [1] was 57.9%.

With `CN(C)S(=O)(=O)N(CC(=O)O)c1ccc(OCCc2coc(-c3ccccc3)n2)cc1` [Example 4, N-[4-(2-(Phenyloxazol-4yl)ethoxy)phenyl]-N-N′N′-dimethyl aminosulfonylglycine], the melting point fell in the range of 154 to 156 °C. Besides, in data set [1], the “% BG14 (BG0 = 100)” value was found to be 70.1%.

As to `O=C(O)CN(c1ccc(OCCc2coc(-c3ccccc3)n2)cc1)S(=O)(=O)Cc1ccccc1` [Example 5, N-[4-(2-(phenyloxazol-4yl)ethoxy)phenyl]-N-phenylmethyl sulfonylglycine], the melting point was in the range of 147 to 149 °C. Moreover, the “% BG14 (BG0 = 100)” value in data set [1] worked out at 77.0%.

For the compound `CS(=O)(=O)N(CC(=O)O)c1ccc2oc(Cc3ccc4ccccc4c3)cc2c1` [Example 6, N-[5-(-2-(2-naphthylmethyl)benzofuranyl)]-N-methylsulfonylglycine], the melting point was 160 to 165 °C (dec.). In data set [1] (blood glucose at day 7 as percent of initial value), the “% BG14 (BG0 = 100), (day 7)” value is listed as 93.1 (day 7) %.
